The text below walks through data of the NIST ThermoML archive (doi:10.1021/je400260c).

Numbers after ± are expanded uncertainties.

For this data set the following is noted: Crystal; DTA.
For `CCCCCCCCCCCCCCCCCC(=O)O` [octadecanoic acid], the Normal melting temperature was 69.8 ± 0.5 °C. Next, `CCCCCCCCCCCCCC(=O)O` [tetradecanoic acid]: 54.4 ± 0.5 °C; `CCCCCCCCCCCCCCCC(=O)O` [hexadecanoic acid]: 63 ± 1.1 °C. With `CCCCCCCCCCCC(=O)O` [dodecanoic acid], the Normal melting temperature worked out at 44.6 ± 0.9 °C.
